Patent US20220323406A1, “METHODS AND COMPOSITIONS FOR DIFFERENTIATING STEM CELLS” (Massachusetts Institute of Technology, priority 2019, published 2022)

How the values were obtained:
[1] = tested on: ENR+CD organoids (ISC to Paneth cell differentiation); assay: Primary screen: CCh-stimulated lysozyme secretion LYZ.S, 2.5-D 384-well ENR+CD organoid differentiation; type: cell-based, mouse; conditions: primary screen
Source text: (§1) High-throughput screening.

[2] = tested on: ENR+CD organoids (ISC to Paneth cell differentiation); assay: Primary screen: basal (non-stimulated) lysozyme secretion LYZ.NS, 2.5-D 384-well ENR+CD organoid differentiation; type: cell-based, mouse; conditions: primary screen; for Z.LYZ.NS: standard z score
Source text: as §1

ENR+CD organoids = assay: Primary screen: ATP (CellTiter-Glo 3D, CTG) cell number/viability, 2.5-D 384-well ENR+CD organoids; conditions: primary screen; for Z.CTG: standard z score;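 on all read-outs here: compounds given at plating and again on day 3 over a 6-day differentiation from ENR+CV stem-cell-enriched precursors, ATP measured on day 6, plate median as control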

CCC(=O)Nc1cccc(Oc2nc(Nc3ccc(N4CCN(C)CC4)cc3OC)ncc2Cl)c1 [WZ4003]
Dose.FC.LYZ.S ([1]; dose 0.08 uM): 0.117 log2 fold change
Dose.FC.LYZ.S ([1]; dose 0.40 uM): −0.034 log2 fold change
Dose.FC.LYZ.S ([1]; dose 2.00 uM): −0.035 log2 fold change
Dose.FC.LYZ.S ([1]; dose 10.00 uM): −0.142 log2 fold change
Dose.FC.LYZ.NS ([2]; dose 0.08 uM): 0.074 log2 fold change
Z.LYZ.NS (standard z score) ([2]; dose 0.08 uM): 0.644
Dose.FC.LYZ.NS ([2]; dose 0.40 uM): −0.041 log2 fold change
Z.LYZ.NS (standard z score) ([2]; dose 0.40 uM): −0.359
Dose.FC.LYZ.NS ([2]; dose 2.00 uM): −0.017 log2 fold change
Z.LYZ.NS (standard z score) ([2]; dose 2.00 uM): −0.151
Dose.FC.LYZ.NS ([2]; dose 10.00 uM): −0.098 log2 fold change
Z.LYZ.NS (standard z score) ([2]; dose 10.00 uM): −0.850
Dose.FC.CTG (ENR+CD organoids; dose 0.08 uM): 0.375 log2 fold change
Z.CTG (standard z score) (ENR+CD organoids; dose 0.08 uM): 0.896
Dose.FC.CTG (ENR+CD organoids; dose 0.40 uM): 0.173 log2 fold change
Z.CTG (standard z score) (ENR+CD organoids; dose 0.40 uM): 0.413
Dose.FC.CTG (ENR+CD organoids; dose 2.00 uM): 0.076 log2 fold change
Z.CTG (standard z score) (ENR+CD organoids; dose 2.00 uM): 0.180
Dose.FC.CTG (ENR+CD organoids; dose 10.00 uM): −0.018 log2 fold change
Z.CTG (standard z score) (ENR+CD organoids; dose 10.00 uM): −0.043

CN[C@@H](C)C(=O)N[C@H](C(=O)N1CCC[C@H]1C(=O)Nc1snnc1-c1ccccc1)C1CCCCC1 [GDC-0152]
Dose.FC.LYZ.S ([1]; dose 0.08 uM): −0.020 log2 fold change
Dose.FC.LYZ.S ([1]; dose 0.40 uM): −0.036 log2 fold change
Dose.FC.LYZ.S ([1]; dose 2.00 uM): −0.057 log2 fold change
Dose.FC.LYZ.S ([1]; dose 10.00 uM): −0.009 log2 fold change
Dose.FC.LYZ.NS ([2]; dose 0.08 uM): −0.002 log2 fold change
Dose.FC.LYZ.NS ([2]; dose 0.40 uM): −0.020 log2 fold change
Dose.FC.LYZ.NS ([2]; dose 2.00 uM): 0.083 log2 fold change
Dose.FC.LYZ.NS ([2]; dose 10.00 uM): 0.103 log2 fold change
Z.LYZ.NS ([2]; dose 0.08 uM): −0.013
Z.LYZ.NS ([2]; dose 0.40 uM): −0.176
Z.LYZ.NS ([2]; dose 2.00 uM): 0.724
Z.LYZ.NS ([2]; dose 10.00 uM): 0.900
Dose.FC.CTG (ENR+CD organoids; dose 0.08 uM): 0.151 log2 fold change
Dose.FC.CTG (ENR+CD organoids; dose 0.40 uM): 0.158 log2 fold change
Dose.FC.CTG (ENR+CD organoids; dose 2.00 uM): 0.003 log2 fold change
Dose.FC.CTG (ENR+CD organoids; dose 10.00 uM): 0.241 log2 fold change
Z.CTG (ENR+CD organoids; dose 0.08 uM): 0.361
Z.CTG (ENR+CD organoids; dose 0.40 uM): 0.377
Z.CTG (ENR+CD organoids; dose 2.00 uM): 0.008
Z.CTG (ENR+CD organoids; dose 10.00 uM): 0.575

O=C(C[S+]([O-])Cc1ccco1)NC/C=C\COc1cc(CN2CCCCC2)ccn1 (stereo not shown) [Lafutidine]
Dose.FC.LYZ.S (log2 fold change) ([1]; dose 0.08 uM): 0.052
Dose.FC.LYZ.S (log2 fold change) ([1]; dose 0.40 uM): 0.078
Dose.FC.LYZ.S (log2 fold change) ([1]; dose 2.00 uM): 0.076
Dose.FC.LYZ.S (log2 fold change) ([1]; dose 10.00 uM): −0.014
Dose.FC.LYZ.NS (log2 fold change) ([2]; dose 0.08 uM): 0.043
Z.LYZ.NS (standard z score) ([2]; dose 0.08 uM): 0.372
Dose.FC.LYZ.NS (log2 fold change) ([2]; dose 0.40 uM): 0.007
Z.LYZ.NS (standard z score) ([2]; dose 0.40 uM): 0.059
Dose.FC.LYZ.NS (log2 fold change) ([2]; dose 2.00 uM): 0.037
Z.LYZ.NS (standard z score) ([2]; dose 2.00 uM): 0.320
Dose.FC.LYZ.NS (log2 fold change) ([2]; dose 10.00 uM): 0.075
Z.LYZ.NS (standard z score) ([2]; dose 10.00 uM): 0.657
Dose.FC.CTG (log2 fold change) (ENR+CD organoids; dose 0.08 uM): 0.152
Dose.FC.CTG (log2 fold change) (ENR+CD organoids; dose 0.40 uM): 0.145
Dose.FC.CTG (log2 fold change) (ENR+CD organoids; dose 2.00 uM): 0.138
Dose.FC.CTG (log2 fold change) (ENR+CD organoids; dose 10.00 uM): −0.098

CCN[C@H]1CN(CCCOC)S(=O)(=O)c2sc(S(N)(=O)=O)cc21 [Brinzolamide]
Dose.FC.LYZ.S ([1]; dose 0.08 uM): 0.030 log2 fold change
Dose.FC.LYZ.S ([1]; dose 0.40 uM): 0.052 log2 fold change
Dose.FC.LYZ.S ([1]; dose 2.00 uM): 0.064 log2 fold change
Dose.FC.LYZ.S ([1]; dose 10.00 uM): 0.083 log2 fold change
Dose.FC.LYZ.NS ([2]; dose 0.08 uM): 0.133 log2 fold change
Z.LYZ.NS (standard z score) ([2]; dose 0.08 uM): 1.159
Dose.FC.LYZ.NS ([2]; dose 0.40 uM): 0.084 log2 fold change
Z.LYZ.NS (standard z score) ([2]; dose 0.40 uM): 0.733
Dose.FC.LYZ.NS ([2]; dose 2.00 uM): 0.059 log2 fold change
Z.LYZ.NS (standard z score) ([2]; dose 2.00 uM): 0.511
Dose.FC.LYZ.NS ([2]; dose 10.00 uM): 0.060 log2 fold change
Z.LYZ.NS (standard z score) ([2]; dose 10.00 uM): 0.521
Dose.FC.CTG (ENR+CD organoids; dose 0.08 uM): −0.007 log2 fold change
Dose.FC.CTG (ENR+CD organoids; dose 0.40 uM): −0.068 log2 fold change
Z.CTG (standard z score) (ENR+CD organoids; dose 0.40 uM): −0.163
Dose.FC.CTG (ENR+CD organoids; dose 2.00 uM): 0.118 log2 fold change
Z.CTG (standard z score) (ENR+CD organoids; dose 2.00 uM): 0.282
Dose.FC.CTG (ENR+CD organoids; dose 10.00 uM): 0.078 log2 fold change
Z.CTG (standard z score) (ENR+CD organoids; dose 10.00 uM): 0.186

CC(=O)Nc1nc2c(Oc3cc(-c4ccc(C(F)(F)F)cc4)ncn3)cccc2s1 [AMG-517]
Dose.FC.LYZ.S ([1]; dose 0.08 uM): 0.084 log2 fold change
Dose.FC.LYZ.S ([1]; dose 0.40 uM): 0.060 log2 fold change
Dose.FC.LYZ.S ([1]; dose 2.00 uM): 0.002 log2 fold change
Dose.FC.LYZ.S ([1]; dose 10.00 uM): 0.266 log2 fold change
Dose.FC.LYZ.NS ([2]; dose 0.08 uM): 0.020 log2 fold change
Z.LYZ.NS (standard z score) ([2]; dose 0.08 uM): 0.178
Dose.FC.LYZ.NS ([2]; dose 0.40 uM): 0.060 log2 fold change
Z.LYZ.NS (standard z score) ([2]; dose 0.40 uM): 0.522
Dose.FC.LYZ.NS ([2]; dose 2.00 uM): −0.006 log2 fold change
Z.LYZ.NS (standard z score) ([2]; dose 2.00 uM): −0.051
Dose.FC.LYZ.NS ([2]; dose 10.00 uM): 0.031 log2 fold change
Z.LYZ.NS (standard z score) ([2]; dose 10.00 uM): 0.267
Dose.FC.CTG (ENR+CD organoids; dose 0.08 uM): 0.161 log2 fold change
Dose.FC.CTG (ENR+CD organoids; dose 0.40 uM): 0.113 log2 fold change
Dose.FC.CTG (ENR+CD organoids; dose 2.00 uM): 0.112 log2 fold change
Dose.FC.CTG (ENR+CD organoids; dose 10.00 uM): 0.056 log2 fold change
